Data on three compounds can be found in US20240010678A1, “METHOD OF TREATMENT OF IRRITABLE BOWEL SYNDROME” (THE JOHNS HOPKINS UNIVERSITY, priority 2020, published 2024).

The test system of assay [1] is mouse model of IBS. The experiment in a line: Visceromotor reflex (VMR) response to colorectal distention (CRD) in a mouse model of IBS. Conditions: graded colorectal distention, KSL-W given intracolonically (FIG. 1), rifaximin FIG. 2. Format: in vivo. Here is the method:
Mouse pups at postnatal day 10 will receive a […] enema infusion with 0.5% acetic acid or saline. The pup will be gently held by hand with head down. A poly-ethylene tubing (PE-10) connected to a 100 ul Hamilton syringe is insert through the rectum into the distal colon about 1.5 cm from the anus. 20 μl of 0.5% acetic acid or saline is infused slowly (about second). The pups are put back with dam and wean at 3 weeks old. The mice are allowed to grow into adulthood (8-12 weeks) when they are ready for test of hypersensitivity (increased pain to graded painful stimulus).
Visceromotor reflex (VMR) and Abdominal Withdrawal Reflex (AWR) response to colorectal distention (CRD) for assessing visceral pain sensitivity. The VMR is a reflex measured using an electromyographic (EMG) recording obtained from the external oblique muscle. […] Then, 30-45 min later, the VMR response to CRD is measured by EMG.
Procedure of electrodes implantation: Under a cocktail of Ketamine/Xylazine (80:8 mg/kg body weight) or 1-2% isoflurane. adult mice undergo surgery to implant abdominal electrodes. The depth of anesthesia will be assessed by pinching the toes for a toe pinch response (negative) every 15 minutes during the surgical procedure. […]
EMG response to CRD: EMG is recorded from two externalized electrodes implanted in the external oblique muscle by using CED 1401 plus and Spike 2 software. […]

The subject of assay [2] is biofilms that mimic supragingival or cariogenic plaque. The note with it: cited from earlier work.
Assay [3] deals with oral microorganisms. The note with it: U.S. Pat. Nos. 7,494,980 and 8,778,889; cited from earlier work.
Assay [4] relates to pathogenic bacteria. The experiment in a line: Selectivity of the antimicrobial peptide for pathogenic versus beneficial bacteria.
Assay [5] concerns microbial balance in the colon. The experiment in a line: Effect on microbial balance in the colon. The class given is in vivo. Conditions: FIG. 1 cited. Here is the method: Using a novel comprehensive, high-density DNA microarray (PhyloChip) a phylogenetic analysis of the microbial community of the large bowel was performed. […] Even more striking was the dramatic change in the ratio of Firmicutes relative to Bacteroidetes, where “IBS” animals were enriched more with Bacteroidetes and also contained a different composition of species within this phylum.

Entries after “also recorded” stand apart in the source; their conditions may differ.

For the compound `CO[C@H]1/C=C/O[C@@]2(C)Oc3c(C)c(O)c4c(O)c(c5c(nc6cc(C)ccn65)c4c3C2=O)NC(=O)/C(C)=C\C=C\[C@H](C)[C@H](O)[C@@H](C)[C@@H](O)[C@@H](C)[C@H](OC(C)=O)[C@@H]1C` [rifaximin, reference compound], the “pain behavior (VMR response to colorectal distention)” value in assay [1] was “attenuates pain behavior”.
Turning to “NH2-Lys-Lys-Val-Val-Phe-Lys-Val-Lys-Phe-Lys-CO NH2 (H-KKVVFKVKFK-NH2) [KSL, antimicrobial decapeptide]”, the “prevention of biofilm formation” value in assay [2] is on record as “effective in preventing the formation of biofilms that mimic supragingival or cariogenic plaque”. Moreover, the “antibacterial activity / inhibition of growth of oral microorganisms” value in assay [3] is recorded as “possess a broad range of antibacterial activity; also recorded: inhibiting the growth of various oral microorganisms”.
As to “NH2-Lys-Lys-Val-Val-Phe-Trp-Val-Lys-Phe-Lys-CO NH2 (H-KKVVFWVKFK-NH2) [KSL-W, L-tryptophan analog of KSL; L-lysine at position six replaced with L-tryptophan]”, the “selectivity against pathogenic versus beneficial bacteria” value in assay [4] was “works against pathogenic bacteria but spares beneficial ones; also recorded: selective against pathogenic bacteria but not beneficial bacteria”. Also, the “pain behavior (VMR response to colorectal distention)” value in assay [1] is given as “attenuates pain behavior”. For the same compound, in assay [5], the “microbial balance in the colon” value is “resets the microbial balance in the colon”.
